From patent publication US20070117743A1, “New antitumoral compounds” (priority 2003, published 2007)
Read-outs that look alike come from different tables or passages of the source. Where a SMILES comes first, the peptide text is derived from it. Bridges are numbered along the chain shown (N, C = ends). [ ]: non-standard residue; d: D form. The star is where a group is joined. d(aIle) = CC[C@H](C)[C@@H](N)C(=O)O; d(aThr) = C[C@@H](O)[C@@H](N)C(=O)O; hCha = N[C@@H](CCC1CCCCC1)C(=O)O; Hexanoyl(5-Me) = CC(C)CCCC(=O)*; dCha = N[C@H](CC1CCCCC1)C(=O)O; Orn = NCCC[C@H](N)C(=O)O; Dhb = C/C=C(\N)C(=O)O

How the values were obtained:
Assay type in all cases: cell-based, human
A-549 = experiment: SRB colorimetric assay of cell growth and viability, A-549; conditions: 48 hours exposure; for GI50: read-out: GI50 A-549; for CC50: read-out: LC50 A-549
SK-MEL-28 = experiment: SRB colorimetric assay of cell growth and viability, SK-MEL-28; conditions: 48 hours exposure; for CC50: read-out: LC50 MEL-28
HT-29 = experiment: SRB colorimetric assay of cell growth and viability, HT-29; conditions: 48 hours exposure; for GI50: read-out: GI50 HT-29; for CC50: read-out: LC50 HT-29
LoVo = experiment: SRB colorimetric assay of cell growth and viability, LoVo; conditions: 48 hours exposure; for CC50: read-out: LC50 LOVO
LoVo-Dox = experiment: SRB colorimetric assay of cell growth and viability, LoVo-Dox; conditions: 48 hours exposure; for CC50: read-out: LC50 LOVO-DOX
Summary of the method: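 SRB staining (0.4% wt/vol in 1% acetic acid, 10 min, room temperature) of cells fixed with 50% TCA follows a 48-hour exposure to compound. Plating density is 5×10^3 cells/well, and the OD is taken at 490 nm.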

DU-145 = experiment: SRB colorimetric assay of cell growth and viability, DU-145; conditions: 48 hours exposure
LNCaP = experiment: SRB colorimetric assay of cell growth and viability, LNCaP; conditions: 48 hours exposure; for GI50: read-out: GI50 LN-caP; for CC50: read-out: LC50 LN-caP
SK-BR-3 = experiment: SRB colorimetric assay of cell growth and viability, SK-BR-3; conditions: 48 hours exposure
IGROV-1 = experiment: SRB colorimetric assay of cell growth and viability, IGROV-1; conditions: 48 hours exposure
IGROV-ET = experiment: SRB colorimetric assay of cell growth and viability, IGROV-ET; conditions: 48 hours exposure; for CC50: read-out: LC50 IGROV-ET
HeLa = experiment: SRB colorimetric assay of cell growth and viability, HeLa; conditions: 48 hours exposure; for CC50: read-out: LC50 HELA
HeLa-APL = experiment: SRB colorimetric assay of cell growth and viability, HeLa-APL; conditions: 48 hours exposure; for CC50: read-out: LC50 HELA-APL
K-562 = experiment: SRB colorimetric assay of cell growth and viability, K-562; conditions: 48 hours exposure; for CC50: read-out: LC50 K-562
PANC-1 = experiment: SRB colorimetric assay of cell growth and viability, PANC-1; conditions: 48 hours exposure, SRB; for CC50: read-out: LC50 PANC-1

C/C=C1\NC(=O)[C@@H](Cc2ccccc2)NC(=O)[C@H](C(C)C)NC(=O)[C@H]([C@H](C)CC)NC(=O)[C@@H](NC(=O)[C@@H](NC(=O)[C@@H](CCCN)NC(=O)[C@@H]2CCCN2C(=O)[C@@H](NC(=O)[C@H](NC(=O)[C@H](NC(=O)[C@@H](NC(=O)CCCC(C)C)C(C)C)[C@H](C)O)C(C)C)C(C)C)[C@H](C)CC)[C@H](C)OC(=O)[C@@H](C(C)C)NC1=O [Compound 69, [D-Val^1, D-Phe^3, Val^4, alo-Ile^5, alo-Thr^6, alo-Ile^7, D-Orn^8, Pro^9, Val^10, D-Val^11, D-Thr^12, Val^13] KF]
TGI A-549 (A-549; SRB): 6.77E−06 Molar | GI50 (A-549; SRB): ≥ 6.77 µM | CC50 (A-549; SRB): ≥ 6.77 µM | GI50 (SK-MEL-28; SRB): ≥ 6.77 µM | TGI MEL-28 (SK-MEL-28; SRB): 6.77E−06 Molar | CC50 (SK-MEL-28; SRB): ≥ 6.77 µM | TGI HT-29 (HT-29; SRB): 6.77E−06 Molar | GI50 (HT-29; SRB): ≥ 6770 nM | CC50 (HT-29; SRB): ≥ 6.77 µM | GI50 (LoVo; SRB): ≥ 6770 nM | TGI LOVO (LoVo; SRB): 6.77E−06 Molar | CC50 (LoVo; SRB): ≥ 6.77 µM | GI50 (LoVo-Dox; SRB): ≥ 6770 nM | TGI LOVO-DOX (LoVo-Dox; SRB): 6.77E−06 Molar | CC50 (LoVo-Dox; SRB): ≥ 6770 nM | GI50 (DU-145; SRB): ≥ 6.77 µM | LC50 (concentration causing 50% net cell kill) (DU-145; SRB): ≥ 6.77 µM | TGI DU-145 (DU-145; SRB): 6.77E−06 Molar | TGI LN-caP (LNCaP; SRB): 6.77E−06 Molar | GI50 (LNCaP; SRB): 2350 nM | CC50 (LNCaP; SRB): ≥ 6.77 µM | GI50 (SK-BR-3; SRB): 6720 nM | LC50 (SK-BR-3; SRB): ≥ 6.77 µM | TGI SK-BR-3 (SK-BR-3; SRB): 6.77E−06 Molar | GI50 (IGROV-1; SRB): 4370 nM | LC50 (concentration causing 50% net cell killing) (IGROV-1; SRB): ≥ 6.77 µM | TGI IGROV (IGROV-1; SRB): 6.77E−06 Molar | GI50 (IGROV-ET; SRB): ≥ 6770 nM | TGI IGROV-ET (IGROV-ET; SRB): 6.77E−06 Molar | CC50 (IGROV-ET; SRB): ≥ 6.77 µM | GI50 (HeLa; SRB): ≥ 6770 nM | TGI HELA (HeLa; SRB): 6.77E−06 Molar | CC50 (HeLa; SRB): ≥ 6.77 µM | GI50 (HeLa-APL; SRB): ≥ 6.77 µM | TGI HELA-APL (HeLa-APL; SRB): 6.77E−06 Molar | CC50 (HeLa-APL; SRB): ≥ 6.77 µM | GI50 (K-562; SRB): ≥ 6.77 µM | TGI K-562 (K-562; SRB): 6.77E−06 Molar | CC50 (K-562; SRB): ≥ 6.77 µM | GI50 (PANC-1): ≥ 6770 nM | TGI PANC-1 (PANC-1): 6.77E−06 Molar | CC50 (PANC-1): ≥ 6.77 µM

C/C=C1\NC(=O)[C@H](Cc2ccccc2)NC(=O)[C@@H](C(C)C)NC(=O)[C@@H]([C@@H](C)CC)NC(=O)[C@H](NC(=O)[C@H](NC(=O)[C@H](CCCN)NC(=O)[C@H]2CCCN2C(=O)[C@H](NC(=O)[C@H](CCC2CCCCC2)NC(=O)[C@@H](NC(=O)[C@@H](CC2CCCCC2)NC(=O)CCCC(C)C)[C@@H](C)O)C(C)C)[C@@H](C)CC)[C@@H](C)OC(=O)[C@H](C(C)C)NC1=O [Compound 10, [hCh^11, D-Cha^13]-KF] ({Hexanoyl(5-Me)}-[dCha]T[hCha][dV][dP][Orn][d(aIle)][d(aThr)][d(aIle)][dV]F[Dhb]V; ester 8-C)
TGI A-549 (A-549): 6.25E−06 Molar | GI50 (A-549): 3.56 µM | CC50 (A-549): 6.25 µM | GI50 (SK-MEL-28): 3.1 µM | TGI MEL-28 (SK-MEL-28): 6.25E−06 Molar | CC50 (SK-MEL-28): 6.25 µM | TGI HT-29 (HT-29): 1.96E−06 Molar | GI50 (HT-29): 1060 nM | CC50 (HT-29): 3.58 µM | GI50 (LoVo): 1120 nM | TGI LOVO (LoVo): 2.27E−06 Molar | CC50 (LoVo): 4.59 µM | GI50 (LoVo-Dox): 537 nM | TGI LOVO-DOX (LoVo-Dox): 1.30E−06 Molar | CC50 (LoVo-Dox): 2940 nM | GI50 (DU-145): 4.29 µM | LC50 (concentration causing 50% net cell kill) (DU-145): 6.25 µM | TGI DU-145 (DU-145): 6.25E−06 Molar | TGI LN-caP (LNCaP): 6.25E−06 Molar | GI50 (LNCaP): 4890 nM | CC50 (LNCaP): 6.25 µM | GI50 (SK-BR-3): 1310 nM | LC50 (SK-BR-3): 4.16 µM | TGI SK-BR-3 (SK-BR-3): 2.32E−06 Molar | GI50 (IGROV-1): 1990 nM | LC50 (concentration causing 50% net cell killing) (IGROV-1): 6.25 µM | TGI IGROV (IGROV-1): 3.84E−06 Molar | GI50 (IGROV-ET): 2230 nM | TGI IGROV-ET (IGROV-ET): 4.56E−06 Molar | CC50 (IGROV-ET): 6.25 µM | GI50 (HeLa): 2670 nM | TGI HELA (HeLa): 6.25E−06 Molar | CC50 (HeLa): 6.25 µM | GI50 (HeLa-APL): 3.67 µM | TGI HELA-APL (HeLa-APL): 6.25E−06 Molar | CC50 (HeLa-APL): 6.25 µM | GI50 (K-562): 6.25 µM | TGI K-562 (K-562): 6.25E−06 Molar | CC50 (K-562): 6.25 µM

C/C=C1\NC(=O)[C@H](Cc2ccc(I)cc2)NC(=O)[C@@H](C(C)C)NC(=O)[C@@H]([C@@H](C)CC)NC(=O)[C@H](NC(=O)[C@H](NC(=O)[C@H](CCCN)NC(=O)[C@H]2CCCN2C(=O)[C@H](NC(=O)[C@@H](NC(=O)[C@@H](NC(=O)[C@H](NC(=O)CC[C@@H](C)CC)C(C)C)[C@@H](C)O)C(C)C)C(C)C)[C@@H](C)CC)[C@@H](C)OC(=O)[C@H](C(C)C)NC1=O [Compound 72, [Phe(4-I)^3, (4S)-MeHex^14]-KF]
TGI A-549 (A-549; SRB): 3.47E−07 Molar | GI50 (A-549; SRB): 0.214 µM | CC50 (A-549; SRB): 0.559 µM | GI50 (SK-MEL-28; SRB): 0.19 µM | TGI MEL-28 (SK-MEL-28; SRB): 4.05E−07 Molar | CC50 (SK-MEL-28; SRB): 1.2 µM | TGI HT-29 (HT-29; SRB): 2.30E−07 Molar | GI50 (HT-29; SRB): 120 nM | CC50 (HT-29; SRB): 0.441 µM | GI50 (LoVo; SRB): 129 nM | TGI LOVO (LoVo; SRB): 2.35E−07 Molar | CC50 (LoVo; SRB): 0.428 µM | GI50 (LoVo-Dox; SRB): 49.8 nM | TGI LOVO-DOX (LoVo-Dox; SRB): 1.23E−07 Molar | CC50 (LoVo-Dox; SRB): 274 nM | GI50 (DU-145; SRB): 0.132 µM | LC50 (concentration causing 50% net cell kill) (DU-145; SRB): 0.425 µM | TGI DU-145 (DU-145; SRB): 2.37E−07 Molar | TGI LN-caP (LNCaP; SRB): 8.42E−07 Molar | GI50 (LNCaP; SRB): 270 nM | CC50 (LNCaP; SRB): 2.38 µM | GI50 (SK-BR-3; SRB): 125 nM | LC50 (SK-BR-3; SRB): 0.416 µM | TGI SK-BR-3 (SK-BR-3; SRB): 2.28E−07 Molar | GI50 (IGROV-1; SRB): 170 nM | LC50 (concentration causing 50% net cell killing) (IGROV-1; SRB): 0.443 µM | TGI IGROV (IGROV-1; SRB): 2.74E−07 Molar | GI50 (IGROV-ET; SRB): 259 nM | TGI IGROV-ET (IGROV-ET; SRB): 3.84E−07 Molar | CC50 (IGROV-ET; SRB): 0.57 µM | GI50 (HeLa; SRB): 133 nM | TGI HELA (HeLa; SRB): 2.24E−07 Molar | CC50 (HeLa; SRB): 0.379 µM | GI50 (HeLa-APL; SRB): 0.287 µM | TGI HELA-APL (HeLa-APL; SRB): 7.73E−07 Molar | CC50 (HeLa-APL; SRB): 2.28 µM | GI50 (PANC-1): 885 nM | TGI PANC-1 (PANC-1): 1.68E−06 Molar | CC50 (PANC-1): 3.2 µM
